The experiment has as its system SVR cells. Put plainly: SVR cell assay: cell numbers counted at 48 hours, percent inhibition versus control. It is filed as cell-based, murine. The following applies: for inhibition at 1 µg/mL / inhibition at 3 µg/mL / inhibition at 6 µg/mL / inhibition at 9 µg/mL: Mus musculus; for inhibition at 1 µg/mL: read-out: Percent Inhibition at a Specified Density (μg/ml): 1; for inhibition at 3 µg/mL: read-out: Percent Inhibition at a Specified Density (μg/ml): 3; for inhibition at 6 µg/mL: read-out: Percent Inhibition at a Specified Density (μg/ml): 6; for Percent Inhibition at a Specified Density (μg/ml): 9 / inhibition at 9 µg/mL: 9 μg/ml; for inhibition at 9 µg/mL: read-out: Percent Inhibition at a Specified Density (μg/ml): 9.

The mark [1] stands for this setting: 1 μg/ml, 10,000 SVR cells in 24 well dish, counted at 48 hours.
The mark [2] stands for this setting: 3 μg/ml, 10,000 SVR cells in 24 well dish, counted at 48 hours.
Where [3] appears, read: 6 μg/ml, 10,000 SVR cells in 24 well dish, counted at 48 hours.
The mark [4] stands for this setting: 10,000 SVR cells in 24 well dish, counted at 48 hours.

SMILES strings stand for the structures. Where two headings read alike, the source gives them in different places.

Description: In the case of testing the anti-angiogenic/anti-cancer activity of compounds according to the present invention, an assay based on SVR cells may be employed. […] The cell numbers are counted and compared against controls. Percent inhibition is readily determined from the data obtained.
10,000 SVR cells were seeded in a 24 well dish [Arbiser, et al., J. Am. […] The cell numbers were counted at 48 hours.

Regarding `O=C(C=Cc1ccccn1)c1ccccn1` [Compound 46, 1,3-Di(2-pyridyl)propenone], the “Percent Inhibition at a Specified Density (μg/ml): 1” value (“Percent Inhibition … 1” below) under setting [1] came out at 0.0%. Besides, under setting [2], the “Percent Inhibition at a Specified Density (μg/ml): 3” value (shortened to “Percent Inhibition … 3”) stood at 53.4%. Further, the “Percent Inhibition at a Specified Density (μg/ml): 6” value (“Percent Inhibition … 6” below) under setting [3] was found to be 85.2%.

Regarding `Cc1ccc(/C=C/C(=O)c2ccc(C)cc2)cc1` [Compound 20, 4,4′-Dimethylchalcone], the inhibition at 1 µg/mL under setting [1] was found to be 36.6%. Under setting [2], the inhibition at 3 µg/mL worked out at 67.3%. Under setting [3], the inhibition at 6 µg/mL stood at 89.5%.

For the compound `O=C(O)C=Cc1ccc(Br)cc1` [Compound 11, para-Bromocinnamic Acid, reference compound], under setting [1], the inhibition at 1 µg/mL turned out to be 18.2%. The inhibition at 3 µg/mL under setting [2] is 3.5%. For the same compound, the inhibition at 6 µg/mL under setting [3] stood at 0%.

As to `O=C(/C=C/c1c(F)c(F)c(F)c(F)c1F)c1c(F)c(F)c(F)c(F)c1F` [Compound 34, 2,2′,3,3′,4,4′,5,5′,6,6′-Decafluorochalcone], the inhibition at 1 µg/mL under setting [1] was 31.1%. In addition, under setting [2], the inhibition at 3 µg/mL is 88.6%. In addition, under setting [3], the inhibition at 6 µg/mL was 88.6%.

Regarding `O=C(C=Cc1ccccc1)c1c2ccccc2cc2ccccc12` [Compound 51, 1-(9-Anthryl)-3-phenylpropenone], the “Percent Inhibition … 1” value under setting [1] came to 25.5%. Besides, the “Percent Inhibition … 3” value under setting [2] stood at 46.4%. The “Percent Inhibition … 6” value under setting [3] is 69.0%.

As to `Cc1ccc(C(=O)/C=C/c2ccc(Cl)cc2)cc1` [Compound 30, 4-Chloro-4′-methylchalcone], the inhibition at 1 µg/mL under setting [1] is 22.3%. Moreover, the inhibition at 3 µg/mL under setting [2] turned out to be 24.5%. Further, the inhibition at 6 µg/mL under setting [3] was determined as 46.5%.

Take `COc1cccc(OC)c1C(=O)/C=C/c1c(Cl)cccc1Cl` [Compound 40, 2,6-Dichloro-2′,6′-dimethoxychalcone]: the inhibition at 1 µg/mL under setting [1] worked out at 23.2%. The inhibition at 3 µg/mL under setting [2] is 43.7%. Under setting [3], the inhibition at 6 µg/mL came out at 52.3%.

As for `CC(=O)/C=C/c1ccccc1` [Compound 5, 4-Phenyl-3E-buten-2-one], where the note is “SVR, 48 h”, the inhibition at 1 µg/mL was found to be 41.9%, the inhibition at 3 µg/mL was 69% and the inhibition at 6 µg/mL came out at 64%.

Consider `COc1cccc(OC)c1C(=O)/C=C/c1ccccc1` [Compound 38, 2′,6′-Dimethoxychalcone], for which the inhibition at 1 µg/mL under setting [1] worked out at 25.8%. Under setting [2], the inhibition at 3 µg/mL came to 39.8%. Also, the inhibition at 6 µg/mL under setting [3] amounted to 63.5%.

For the compound `O=C(O)/C=C/c1ccccc1` [Compound 10, trans-Cinnamic Acid, reference compound], the inhibition at 1 µg/mL under setting [1] is 18.6%. Besides, the inhibition at 3 µg/mL under setting [2] stood at 14.1%. For the same compound, the inhibition at 6 µg/mL under setting [3] amounted to 69.6%.

As for `O=C1C(=Cc2cccc3ccccc23)CCc2ccccc21` [Compound 70, 2-(1-Naphthylidene)tetralone], the “Percent Inhibition … 1” value under setting [1] is reported as 18.7%. Besides, the “Percent Inhibition … 3” value under setting [2] is 15.9%. Moreover, the “Percent Inhibition … 6” value under setting [3] stood at 23.6%.

Take `O=C(C=Cc1ccco1)c1ccco1` [Compound 43, 1,3-Bis(2-furyl)propenone]: the “Percent Inhibition … 1” value under setting [1] stood at 7.7%. Besides, the “Percent Inhibition … 3” value under setting [2] is recorded as 8.1%. Under setting [3], the “Percent Inhibition … 6” value was found to be 12.0%.

With `O=C1C(=Cc2ccccc2)CCc2ccccc21` [Compound 68, 2-(Benzylidene)tetralone], the “Percent Inhibition … 3” value under setting [2] was determined as 57.9%. Also, the “Percent Inhibition … 6” value under setting [3] is given as 97.5%. Also, the “Percent Inhibition at a Specified Density (μg/ml): 9” value (from here on “Percent Inhibition … 9”) under setting [4] was found to be 96.7%.

As for `O=C(/C=C/c1c(Cl)cccc1Cl)/C=C/c1c(Cl)cccc1Cl` [Compound 73, 1,5-Bis(2,6-dichlorophenyl)-1E,4E-pentadien-3-one], the inhibition at 1 µg/mL under setting [1] was 60.7%. Further, under setting [2], the inhibition at 3 µg/mL was determined as 87.1%. Under setting [3], the inhibition at 6 µg/mL turned out to be 90.4%.

As to `O=C1C(=Cc2ccccc2)CCCC1=Cc1ccccc1` [Compound 75, 2,6-Di(benzylidene)cyclohexanone], the inhibition at 3 µg/mL under setting [2] amounted to 91.3%. Moreover, the inhibition at 6 µg/mL under setting [3] came to 92.8%. Further, the inhibition at 9 µg/mL under setting [4] stood at 97.4%.

Turning to `O=C(/C(Br)=C/c1ccccc1)c1ccccc1` [Compound 41, α-Bromo-Z-chalcone], the “Percent Inhibition … 1” value under setting [1] came to 57.2%. Under setting [2], the “Percent Inhibition … 3” value worked out at 75.7%. Also, the “Percent Inhibition … 6” value under setting [3] came out at 79.8%.

For the compound `O=C(/C=C/c1ccc(Cl)cc1)c1ccc(Cl)cc1` [Compound 19, 4,4′-Dichlorochalcone], the inhibition at 1 µg/mL under setting [1] came to 13.8%. In addition, the inhibition at 3 µg/mL under setting [2] turned out to be 11.7%. Also, under setting [3], the inhibition at 6 µg/mL was 31.1%.

As to `O=C(C=Cc1ccccc1)c1ccc2ccccc2c1` [Compound 61, 1-(2-Naphthyl)-3-phenylpropenone], under setting [2], the “Percent Inhibition … 3” value is 92.2%. Besides, the “Percent Inhibition … 6” value under setting [3] stood at 94.7%. Moreover, under setting [4], the “Percent Inhibition … 9” value is reported as 96.0%.

Take `O=c1cc(-c2ccccc2)oc2ccccc12` [Compound 14, Flavone, reference compound]: the inhibition at 1 µg/mL under setting [1] amounted to 19.3%. Moreover, the inhibition at 3 µg/mL under setting [2] was 26.3%. Under setting [3], the inhibition at 6 µg/mL is 46.7%.

As to `N#Cc1coc2c(Cl)cc(Cl)cc2c1=O` [Compound 16, 6,8-Dichloro-3-cyanochromone, reference compound], the inhibition at 1 µg/mL under setting [1] was 15.2%. The inhibition at 3 µg/mL under setting [2] amounted to 0%. The inhibition at 6 µg/mL under setting [3] was 0%.

In the case of `O=C(C=Cc1ccc2ccccc2c1)c1ccc2ccccc2c1` [Compound 60, 1,3-Di(2-naphthyl)propenone], the “Percent Inhibition … 3” value under setting [2] is reported as 13.2%. Besides, the “Percent Inhibition … 6” value under setting [3] stood at 20.3%. Besides, the “Percent Inhibition … 9” value under setting [4] is recorded as 27.1%.

Regarding `O=C(/C=C/c1ccccc1)/C=C/c1ccccc1` [Compound 3, 1,5-Diphenyl-1E,4E-pentadien-3-one], the inhibition at 1 µg/mL under setting [1] was 79.3%. Further, under setting [2], the inhibition at 3 µg/mL was 96.8%. Besides, the inhibition at 6 µg/mL under setting [3] came out at 96.8%.

Regarding `O=C1C(=C2C=CC=CN2)CCCC1=C1C=CC=CN1` [Compound 79, 2,6-Di(2-pyridylidene)cyclohexanone], under setting [1], the inhibition at 1 µg/mL was 88.3%. Under setting [2], the inhibition at 3 µg/mL is 92.9%. Under setting [3], the inhibition at 6 µg/mL turned out to be 96.7%.

For `O=C1CCCCC1=Cc1ccccc1` [Compound 7, 2-(Benzylidene)cyclohexanone], the inhibition at 1 µg/mL under setting [1] came out at 23%. Under setting [2], the inhibition at 3 µg/mL was determined as 29.5%. The inhibition at 6 µg/mL under setting [3] was 72.4%.

`O=C(C=Cc1cccc2ccccc12)c1ccc2ccccc2c1` [Compound 63, 1-(2-Naphthyl)-3-(1-naphthyl)propenone]: the “Percent Inhibition … 1” value under setting [1] is given as 0.0%. Under setting [2], the “Percent Inhibition … 3” value amounted to 24.9%. Moreover, the “Percent Inhibition … 6” value under setting [3] is recorded as 50.3%.

Turning to `O=C(/C=C/c1ccccc1)c1ccccc1` [Compound 1, Chalcone], the inhibition at 1 µg/mL under setting [1] amounted to 71.6%. In addition, the inhibition at 3 µg/mL under setting [2] is 92.8%. Further, under setting [3], the inhibition at 6 µg/mL is 94.4%.

As for `Cc1ccc(C(=O)/C=C/c2ccccc2Cl)c(C)c1` [Compound 21, 2-Chloro-2′,4′-dimethylchalcone], the inhibition at 1 µg/mL under setting [1] came to 29.6%. Also, the inhibition at 3 µg/mL under setting [2] is 25.2%. Besides, the inhibition at 6 µg/mL under setting [3] was determined as 73.4%.

Regarding `O=C1C(=Cc2ccccc2)CCC1=Cc1ccccc1` [Compound 4, 2,5-(Dibenzylidene)cyclopentanone], under setting [1], the “Percent Inhibition … 1” value was determined as 19.6%. The “Percent Inhibition … 3” value under setting [2] worked out at 23.8%. Moreover, the “Percent Inhibition … 6” value under setting [3] is given as 38.6%.

In the case of `O=C(/C=C/c1ccccc1)c1c(F)c(F)c(F)c(F)c1F` [Compound 36, 2′,3′,4′,5′,6′-Pentafluorochalcone], the inhibition at 1 µg/mL under setting [1] amounted to 6.6%. Under setting [2], the inhibition at 3 µg/mL came out at 55.6%. The inhibition at 6 µg/mL under setting [3] is 88.7%.

For `Cc1cccc(C)c1/C=C/C(=O)c1ccccc1` [Compound 23, 2,6-Dimethylchalcone], under setting [1], the inhibition at 1 µg/mL was found to be 47.7%. Also, the inhibition at 3 µg/mL under setting [2] was found to be 57.9%. Under setting [3], the inhibition at 6 µg/mL turned out to be 89.6%.

On to `Cc1ccc(C(=O)/C=C/c2ccccc2)c(C)c1` [Compound 22, 2′,4′-Dimethylchalcone], for which, under setting [1], the inhibition at 1 µg/mL amounted to 41.7%. Further, under setting [2], the inhibition at 3 µg/mL amounted to 80.4%. Under setting [3], the inhibition at 6 µg/mL was 87.2%.

Consider `COc1ccc(/C=C/C(=O)c2ccc(OC)cc2)cc1` [Compound 2, 4,4′-Dimethoxychalcone], for which the inhibition at 1 µg/mL under setting [1] came to 29.1%. For the same compound, under setting [2], the inhibition at 3 µg/mL turned out to be 63.4%. The inhibition at 6 µg/mL under setting [3] is 85.2%.

`O=C(C=Cc1ccccc1)c1cccc2ccccc12` [Compound 58, 1-(1-Naphthyl)-3-phenylpropenone]: the “Percent Inhibition … 1” value under setting [1] is listed as 10.9%. Besides, the “Percent Inhibition … 3” value under setting [2] was 33.2%. The “Percent Inhibition … 6” value under setting [3] is given as 68.0%.

With `O=C(/C=C/c1c(Cl)cccc1Cl)c1c(Cl)cccc1Cl` [Compound 32, 2,2′,6,6′-Tetrachlorochalcone], the inhibition at 3 µg/mL under setting [2] was found to be 74.9%. In addition, under setting [3], the inhibition at 6 µg/mL was 97%. The inhibition at 9 µg/mL under setting [4] was found to be 98.1%.

For the origin of these results see US7432303B2, “Chalcone and its analogs as agents for the inhibition of angiogenesis and related disease states” (James and Emory University, priority 1999, dated 2008).
